Literature values, collected in patent US20090306944A1, “DEVICE AND METHOD FOR CALCULATING AND SUPPLYING A DRUG DOSE” (BAYER TECHNOLOGY SERVICES GMBH, priority 2006, published 2009).
Like-named read-outs stand apart in the source and are kept apart here.

Assays:
[1] = for main binding protein in the plasma: adult
[2] = target: T1, CYP1A2 (Homo sapiens, UniProt P05177); settings: proportion of overall clearance, reference value in an adult
T1 sequence (P05177 1-516): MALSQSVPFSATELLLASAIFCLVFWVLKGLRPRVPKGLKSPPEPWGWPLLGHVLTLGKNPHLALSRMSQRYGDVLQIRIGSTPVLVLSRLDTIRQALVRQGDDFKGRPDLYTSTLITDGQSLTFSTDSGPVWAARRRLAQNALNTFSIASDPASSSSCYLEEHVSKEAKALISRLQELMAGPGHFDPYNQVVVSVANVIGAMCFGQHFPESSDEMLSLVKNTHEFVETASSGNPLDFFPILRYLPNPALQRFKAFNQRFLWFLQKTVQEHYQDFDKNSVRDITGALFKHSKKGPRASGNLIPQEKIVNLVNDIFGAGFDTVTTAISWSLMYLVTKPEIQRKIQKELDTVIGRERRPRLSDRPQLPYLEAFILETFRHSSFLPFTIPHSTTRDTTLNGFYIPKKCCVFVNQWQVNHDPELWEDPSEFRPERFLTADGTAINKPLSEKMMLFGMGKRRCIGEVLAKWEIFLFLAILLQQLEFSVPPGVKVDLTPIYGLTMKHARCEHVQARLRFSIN

[3] = target: CYP2E1 (Homo sapiens, UniProt P05181); settings: proportion of overall clearance, reference value in an adult
[4] = intravenously administered
[5] = Measured
[6] = target: T2, CYP3A4 (Homo sapiens, UniProt P08684); settings: proportion of overall clearance, reference value in an adult
T2 construct: the metabolizing enzymes in the liver; host or cells: liver enzymes of the adult, in vivo clearance

[7] = system: CYP3A; settings: in vivo
[8] = proportion of overall clearance, reference value in an adult
[9] = target: UGT1A1 (Homo sapiens, UniProt P22309); settings: proportion of overall clearance, reference value in an adult
[10] = target: T3, UGT2B7 (Homo sapiens, UniProt P16662); settings: proportion of overall clearance, reference value in an adult
T3 sequence (P16662 24-529): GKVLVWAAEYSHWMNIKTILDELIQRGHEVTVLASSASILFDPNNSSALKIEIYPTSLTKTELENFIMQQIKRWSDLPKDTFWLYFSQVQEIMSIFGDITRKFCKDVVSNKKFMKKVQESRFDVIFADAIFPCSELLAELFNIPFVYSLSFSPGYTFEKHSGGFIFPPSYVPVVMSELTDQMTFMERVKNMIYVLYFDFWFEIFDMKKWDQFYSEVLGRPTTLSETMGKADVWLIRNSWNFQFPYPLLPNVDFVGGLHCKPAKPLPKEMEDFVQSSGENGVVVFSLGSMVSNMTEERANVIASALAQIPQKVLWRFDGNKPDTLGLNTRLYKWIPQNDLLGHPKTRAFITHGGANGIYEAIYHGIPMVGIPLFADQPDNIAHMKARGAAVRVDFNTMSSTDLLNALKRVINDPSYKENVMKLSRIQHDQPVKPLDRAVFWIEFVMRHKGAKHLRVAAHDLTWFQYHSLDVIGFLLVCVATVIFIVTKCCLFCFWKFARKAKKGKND

[11] = proportion of overall clearance, reference value in an adult
[12] = with co-medication with cyclosporin

Sequence of CYP2E1 (P05181 whole entry): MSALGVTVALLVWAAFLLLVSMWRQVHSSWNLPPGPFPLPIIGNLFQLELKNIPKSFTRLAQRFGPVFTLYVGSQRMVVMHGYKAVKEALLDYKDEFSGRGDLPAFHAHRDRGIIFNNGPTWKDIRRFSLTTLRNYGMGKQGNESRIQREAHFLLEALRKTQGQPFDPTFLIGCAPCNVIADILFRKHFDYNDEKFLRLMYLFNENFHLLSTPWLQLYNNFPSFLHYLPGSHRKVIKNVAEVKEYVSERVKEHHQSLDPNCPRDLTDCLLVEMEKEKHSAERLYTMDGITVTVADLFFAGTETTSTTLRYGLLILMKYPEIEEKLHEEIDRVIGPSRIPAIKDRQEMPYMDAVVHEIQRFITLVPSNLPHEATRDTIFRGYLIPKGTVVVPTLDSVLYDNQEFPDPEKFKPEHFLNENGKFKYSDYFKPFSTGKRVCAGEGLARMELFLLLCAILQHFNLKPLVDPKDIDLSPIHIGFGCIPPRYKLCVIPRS
T2 sequence (P08684 whole entry): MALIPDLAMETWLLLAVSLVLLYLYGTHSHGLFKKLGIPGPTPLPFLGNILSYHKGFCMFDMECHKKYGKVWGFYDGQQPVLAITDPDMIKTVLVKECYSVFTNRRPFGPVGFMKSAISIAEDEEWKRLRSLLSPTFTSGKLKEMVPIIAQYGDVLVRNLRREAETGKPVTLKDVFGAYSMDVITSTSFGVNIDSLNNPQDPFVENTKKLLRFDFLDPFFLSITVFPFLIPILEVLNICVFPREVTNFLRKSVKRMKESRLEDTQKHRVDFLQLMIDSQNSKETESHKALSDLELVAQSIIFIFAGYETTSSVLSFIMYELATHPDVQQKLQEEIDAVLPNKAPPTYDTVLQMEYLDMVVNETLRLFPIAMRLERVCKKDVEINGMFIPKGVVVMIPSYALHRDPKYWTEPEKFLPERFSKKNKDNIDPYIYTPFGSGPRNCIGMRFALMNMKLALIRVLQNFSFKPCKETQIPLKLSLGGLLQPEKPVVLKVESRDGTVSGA
Sequence of UGT1A1 (P22309 26-533): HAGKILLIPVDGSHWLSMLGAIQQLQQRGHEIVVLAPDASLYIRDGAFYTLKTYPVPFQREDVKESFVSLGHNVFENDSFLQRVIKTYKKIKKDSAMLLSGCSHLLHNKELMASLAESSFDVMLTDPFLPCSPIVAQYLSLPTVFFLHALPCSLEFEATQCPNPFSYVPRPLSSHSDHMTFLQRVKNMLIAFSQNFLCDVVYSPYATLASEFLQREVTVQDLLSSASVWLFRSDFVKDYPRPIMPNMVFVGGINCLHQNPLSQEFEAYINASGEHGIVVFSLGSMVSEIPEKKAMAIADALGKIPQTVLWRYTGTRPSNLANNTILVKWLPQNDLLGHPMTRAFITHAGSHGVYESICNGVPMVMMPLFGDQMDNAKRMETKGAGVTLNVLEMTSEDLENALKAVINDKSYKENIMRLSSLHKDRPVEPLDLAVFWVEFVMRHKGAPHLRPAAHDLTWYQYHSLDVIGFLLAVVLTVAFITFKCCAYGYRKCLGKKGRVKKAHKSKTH

## CC(=O)Nc1ccc(O)cc1 [Paracetamol]
[1]
  main binding protein in the plasma: Albumin
[1]; reference value in an adult
  Free fraction in the plasma: 95%

## Cn1c(=O)c2[nH]cnc2n(C)c1=O [Theophylline]
[2]
  Excretion process: CYP1A2: CYP1A2 (60%),
[11]
  Excretion process: Renal: Renal (15%)
[3]
  Excretion process: CYP2E1: CYP2E1 (25%),

## O=C(O)c1cn(C2CC2)c2cc(N3CCNCC3)c(F)cc2c1=O [Ciprofloxacin]
[4]
  fraction renally excreted without being changed: Approximately ⅔

## CC(=O)O[C@H]1C(=O)[C@@]2(C)[C@H]([C@H](OC(=O)c3ccccc3)[C@]3(O)C[C@H](OC(=O)[C@H](O)[C@@H](NC(=O)c4ccccc4)c4ccccc4)C(C)=C1C3(C)C)[C@]1(OC(C)=O)CO[C@@H]1C[C@@H]2O [paclitaxel, Paclitaxel]
[5]; [12]
  AUC: 1.7 ± 0.9 µM·h
  Cmax: 200 ± 100 nM
  T > 0.1 μM: 3.7 ± 2.3 h
  T > 0.5 μM: 7.4 ± 4.4 h
[5]; without co-medication
  AUC: 0.2 ± 0.1 µM·h
  T > 0.1 μM: 0 h
  T > 0.5 μM: 1.2 ± 0.9 h
[5]; without co-medication, rounded-up value
  Cmax: 100 nM

## CCCN1CCCC[C@H]1C(=O)Nc1c(C)cccc1C [Ropivacaine]
[2]
  Excretion process: CYP1A2: CYP1A2 (90%),
[11]
  Excretion process: Renal: Renal (1%)
[1]
  main binding protein in the plasma: α1-Glycoprotein
[1]; reference value in an adult
  Free fraction in the plasma: 5%
[6]
  Excretion process: CYP3A4: CYP3A4 (9%),

## Cn1c(=O)c2c(ncn2C)n(C)c1=O [Caffeine]
[2]
  Excretion process: CYP1A2: CYP1A2 (85%),
[1]; reference value in an adult
  Free fraction in the plasma: 70% (albumin)
[3]
  Excretion process: CYP2E1: CPY2E1 (13%),

## Cc1ncc2n1-c1ccc(Cl)cc1C(c1ccccc1F)=NC2 [Midazolam]
[1]; plasma
  Free fraction in the plasma: 2% (Albumin)
[7]
  Excretion process: CYP3A: CYP3A (100%)

## C[C@H]1COc2c(N3CCN(C)CC3)c(F)cc3c(=O)c(C(=O)O)cn1c23 [Levofloxacin]
In vivo
  Excretion process: Renal: Renal (80%)
[1]; reference value in an adult
  Free fraction in the plasma: 70% (Albumin)
[8]
  Excretion process: Billiary: Billiary (10%)
[9]
  Excretion process: UGT1A1: UGT1A1 (10%)

## Gentamicin
[1]; plasma
  Free fraction in the plasma: 95%

## O=C1Nc2ccc(Cl)cc2C(c2ccccc2Cl)=NC1O (stereo not drawn) [Lorazepam]
[1]; plasma
  Free fraction in the plasma: 8% (Albumin)
[10]
  Excretion process: UGT2B7: UGT2B7 (100%)

## CN[C@@H]1[C@@H](O)[C@@H](O[C@@H]2[C@@H](O)[C@H](O[C@H]3O[C@H](CN)[C@@H](O)[C@H](O)[C@H]3O)[C@@H](N)C[C@H]2NC(=O)[C@@H](O)CN)OC[C@]1(C)O [Isepamicin]
[11]
  Excretion process: Renal: Renal (100%)
[1]; reference value in an adult
  Free fraction in the plasma: 95%
